Test results published in patent publication US4910195A, “Dihydropyridine derivatives” (Green Cross Corporation, priority 1986, dated 1990).

Experiment: Hypotensive effect, systolic pressure by indirect tail-cuff method without anesthesia, oral administration
Type: in vivo, male rats, 10- to 11-week-old
Details: rats, 10 mg/kg, suspended in 10% HCO-60
Experimental: An experiment was conducted to investigate the hypotensive effects of the dihydropyridine derivatives (I) and acid addition salts thereof on 10- to 11-week-old male rats (3 to 5 animals per group).
For blood pressure determination, systolic pressure was measured without anesthesia by an indirect tail-cuff method using a sphygmomanometer (PE-300, Narco Bio-System).
Each of the test compounds was suspended in 10% HCO-60 (polyoxyethylated castor oil produced by Nikko Chemicals K.K.) and administered orally to the animals in a dose of 10 mg/kg. Blood pressure measurements were conducted at predetermined time intervals.

For COC(=O)C1=C(C)NC(C)=C(C(=O)OCCN(C)Cc2ccccc2)C1c1cccc([N+](=O)[O-])c1 (centres unmarked) [nicardipine], which “50% recovery time (time required for the reduced blood pressure to return to half the maximal reduction)” value is on record?
Its value is 3.1 h.

What about the “maximum blood pressure fall” value of the same compound?
Its value is 20%.
